Common to all, as to format: biochemical
The target in test [1] is T1, R. fascians ADP-Glc PPase (Rhodococcoides fascians, UniProt A0A143QED7).
T1 construct: gene glgC; recombinant in E. coli BL21 (DE3), His-tagged, IMAC purified; actinobacterial enzyme is a GlgC tetramer
T1 sequence (A0A143QED7 1-404): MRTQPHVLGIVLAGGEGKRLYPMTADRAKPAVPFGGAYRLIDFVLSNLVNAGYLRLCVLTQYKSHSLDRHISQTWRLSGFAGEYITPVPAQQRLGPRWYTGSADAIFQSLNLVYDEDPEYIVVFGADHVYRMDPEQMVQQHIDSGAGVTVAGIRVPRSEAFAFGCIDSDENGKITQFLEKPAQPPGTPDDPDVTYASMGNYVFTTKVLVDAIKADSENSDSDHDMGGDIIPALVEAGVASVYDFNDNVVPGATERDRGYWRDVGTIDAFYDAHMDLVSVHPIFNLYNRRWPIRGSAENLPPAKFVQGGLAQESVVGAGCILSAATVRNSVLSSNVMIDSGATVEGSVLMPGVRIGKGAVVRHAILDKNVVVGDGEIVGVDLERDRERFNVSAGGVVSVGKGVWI
Briefly: activation of ADP-Glc synthesis, malachite green Pi release. Conditions: allosteric activator; Glc-1P and ATP as substrates, Mg2+, pH 8.0, 37°C.

The target in test [2] is T2, A. tumefaciens ADP-Glc PPase (Agrobacterium tumefaciens, UniProt P39669).
T2 construct: gene glgC; recombinant in E. coli; proteobacterial enzyme is a GlgC homotetramer
T2 sequence (P39669 1-420): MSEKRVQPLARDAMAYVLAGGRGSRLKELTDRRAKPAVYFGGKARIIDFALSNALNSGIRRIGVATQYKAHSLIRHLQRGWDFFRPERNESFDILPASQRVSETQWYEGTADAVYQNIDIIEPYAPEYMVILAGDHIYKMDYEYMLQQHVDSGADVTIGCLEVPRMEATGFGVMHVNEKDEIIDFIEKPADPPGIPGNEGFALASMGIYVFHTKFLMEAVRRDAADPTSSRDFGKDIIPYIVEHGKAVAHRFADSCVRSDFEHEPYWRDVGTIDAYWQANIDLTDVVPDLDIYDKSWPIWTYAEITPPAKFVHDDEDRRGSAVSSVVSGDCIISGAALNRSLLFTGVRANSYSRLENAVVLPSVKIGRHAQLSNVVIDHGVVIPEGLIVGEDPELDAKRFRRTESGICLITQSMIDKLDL
As to the kind of experiment: saturation curve, malachite green Pi release coupled to pyrophosphatase. Conditions: ATP co-substrate, Mg2+, pH 8.0, 37°C.

In test [3] the target is T3, S. coelicolor ADP-Glc PPase (Streptomyces coelicolor, UniProt P72394).
T3 construct: gene glgC; recombinant in E. coli BL21 (DE3), His-tagged, IMAC purified; actinobacterial enzyme is a GlgC tetramer
T3 sequence (P72394 1-399): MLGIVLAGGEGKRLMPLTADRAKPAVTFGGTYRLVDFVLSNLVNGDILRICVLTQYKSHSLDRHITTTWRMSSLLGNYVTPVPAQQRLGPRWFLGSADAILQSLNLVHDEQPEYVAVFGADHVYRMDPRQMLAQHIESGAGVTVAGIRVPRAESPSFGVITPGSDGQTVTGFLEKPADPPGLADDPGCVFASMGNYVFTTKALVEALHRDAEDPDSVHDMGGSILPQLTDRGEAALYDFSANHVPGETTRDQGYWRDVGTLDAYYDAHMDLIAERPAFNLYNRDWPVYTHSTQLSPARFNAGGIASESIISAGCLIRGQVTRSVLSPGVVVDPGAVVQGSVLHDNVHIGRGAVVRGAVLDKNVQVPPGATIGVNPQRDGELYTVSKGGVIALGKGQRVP
As to the kind of experiment: activation curve, malachite green Pi release coupled to pyrophosphatase. Conditions: allosteric activator (4-fold); Glc-1P and ATP as substrates, Mg2+, pH 8.0, 37°C; read-out: A0.5.

Test [4] concerns the target T4, K. rhizophila ADP-Glc PPase (Kocuria rhizophila, UniProt B2GHR6).
T4 construct: gene glgC; recombinant in E. coli BL21 (DE3), His-tagged, IMAC purified; actinobacterial enzyme is a GlgC tetramer
T4 sequence (B2GHR6 1-414): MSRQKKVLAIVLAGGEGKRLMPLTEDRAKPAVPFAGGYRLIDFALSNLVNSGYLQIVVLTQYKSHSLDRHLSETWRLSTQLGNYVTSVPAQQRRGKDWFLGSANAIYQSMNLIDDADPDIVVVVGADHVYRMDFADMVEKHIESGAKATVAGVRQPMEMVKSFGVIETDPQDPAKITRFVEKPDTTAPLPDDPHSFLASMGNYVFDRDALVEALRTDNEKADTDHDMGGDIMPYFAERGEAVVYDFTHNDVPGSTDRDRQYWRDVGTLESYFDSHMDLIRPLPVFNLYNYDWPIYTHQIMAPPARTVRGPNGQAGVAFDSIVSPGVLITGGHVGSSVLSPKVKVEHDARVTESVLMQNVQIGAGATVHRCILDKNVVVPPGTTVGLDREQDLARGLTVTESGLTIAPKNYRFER
The test is described as above. Conditions: allosteric activator (Vmax 4-fold); Glc-1P and ATP as substrates, Mg2+, pH 8.0, 37°C; read-out: A0.5.

In test [5] the target is T5, R. albus ADP-Glc PPase GlgC (Hominimerdicola alba, UniProt E9SED8).
T5 construct: recombinant in E. coli, IMAC purified; homotetramer
T5 sequence (E9SED8 1-400): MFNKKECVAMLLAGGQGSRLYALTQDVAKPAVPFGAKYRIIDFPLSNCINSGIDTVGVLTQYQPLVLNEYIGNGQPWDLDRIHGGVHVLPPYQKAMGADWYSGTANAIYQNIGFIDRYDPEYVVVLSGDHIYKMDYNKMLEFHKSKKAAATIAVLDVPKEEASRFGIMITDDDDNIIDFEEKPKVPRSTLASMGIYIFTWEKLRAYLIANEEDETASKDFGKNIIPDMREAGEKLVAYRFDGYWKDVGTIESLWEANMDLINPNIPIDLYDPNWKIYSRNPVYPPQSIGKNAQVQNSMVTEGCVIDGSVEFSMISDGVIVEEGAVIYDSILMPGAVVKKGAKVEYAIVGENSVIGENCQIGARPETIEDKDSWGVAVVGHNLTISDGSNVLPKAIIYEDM
As to the kind of experiment: activation of ADP-Glc synthesis, malachite green Pi release. Conditions: allosteric activator; Glc-1P and ATP as substrates, Mg2+, pH 8.0, 37°C.

Test [6] concerns the target T2, A. tumefaciens ADP-Glc PPase. As to the kind of experiment: effect on ADP-Glc synthesis, malachite green Pi release. Conditions: allosteric effector, lowers activity; Glc-1P and ATP as substrates, Mg2+, pH 8.0, 37°C.
Test [7] concerns the target T6, R. albus ADP-Glc PPase GlgC/GlgD (Hominimerdicola alba, UniProt E9SED8).
T6 construct: recombinant in E. coli, IMAC purified; heterotetramer; with Glucose-1-phosphate adenylyltransferase, GlgD subunit
T6 sequence (E9SED8 1-400): T5 sequence (E9SED8 1-400)
T6 sequence (E9SED9 1-371 partner): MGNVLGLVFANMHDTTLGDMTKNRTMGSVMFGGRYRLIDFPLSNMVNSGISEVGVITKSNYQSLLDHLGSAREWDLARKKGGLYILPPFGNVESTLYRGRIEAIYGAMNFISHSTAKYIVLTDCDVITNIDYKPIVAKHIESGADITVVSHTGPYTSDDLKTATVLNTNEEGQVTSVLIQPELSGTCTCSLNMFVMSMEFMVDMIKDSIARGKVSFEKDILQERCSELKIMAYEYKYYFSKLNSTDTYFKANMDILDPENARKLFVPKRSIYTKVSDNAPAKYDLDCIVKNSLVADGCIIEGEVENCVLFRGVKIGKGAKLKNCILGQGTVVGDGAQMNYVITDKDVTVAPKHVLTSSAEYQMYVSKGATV
As to the kind of experiment: activation of ADP-Glc synthesis, malachite green Pi release. Conditions: allosteric activator; Glc-1P and ATP as substrates, Mg2+, pH 8.0, 37°C.

Consider three compounds from publication PMC9093745, “Carbohydrate Metabolism in Bacteria: Alternative Specificities in ADP-Glucose Pyrophosphorylases Open Novel Metabolic Scenarios and Biotechnological Tools” (Frontiers in Microbiology, 2022).

Turning to `O=P(O)(O)OC[C@H]1OC(O)[C@H](O)[C@@H](O)[C@@H]1O` (some centres unmarked) [Glc-6P], the fold activation in test [1] is ~ 8 fold.

Consider `N[C@H]1[C@@H](OP(=O)(O)O)O[C@H](CO)[C@@H](O)[C@@H]1O` [GlcN-1P], for which, in test [2], the Km result is “The enzyme was active with GlcN-1P as a substrate”.

Take `N[C@H]1C(O)O[C@H](COP(=O)(O)O)[C@@H](O)[C@@H]1O` (some centres unmarked) [GlcN-6P]: the EC50 was determined as 3550 ± 520 µM in test [3] and 80 µM in test [4]. The fold activation in test [1] is ~ 8 fold. Besides, the “activation of ADP-Glc synthesis, malachite green Pi release” value in test [5] is “both R. albus GlgC and GlgC/GlgD responded to GlcN-6P activation”; in test [7], “both R. albus GlgC and GlgC/GlgD responded to GlcN-6P activation”. In test [6], the “% decrease of activity” value is ~ 30%.
